In patent US5439885A, “CRF analogs” (The Salk Institute for Biological Studies, priority 1993, dated 1995):
“Also recorded” adds a separate entry of the source. Read-outs that look alike come from different tables or passages of the source. Where a SMILES comes first, the peptide text is derived from it. Where no end group is shown, it is not given here. [ ]: non-standard residue; d: D form. Nle = CCCC[C@H](N)C(=O)O

Key:
[1] = biopotency of CRF analog (test not specified)
[2] = lowering of blood pressure when injected peripherally; type: in vivo, mammals; settings: e.g. intravenously
[3] = test system: secretion of ACTH and β-END-LI; assay: inhibition of the secretion of ACTH and β-END-LI by CRF antagonists; type: in vivo; settings: injected peripherally
rats = settings: administered into the ventricles; cited from earlier work
[4] = CRF in the brain; cited from earlier work
[5] = test system: secretion of ACTH and β-END-LI; assay: in vivo stimulation of the secretion of ACTH and β-END-LI
Protocol: (§1) The synthetic CRF agonist peptides [Ala^20 ]-oCRF and [Ala^39 ]-oCRF are examined for their effects on the secretion of ACTH and β-endorphin in vitro and also in vivo. The potency of synthetic oCRF analogs to stimulate the secretion of ACTH and β-endorphin by cultured rat pituitary cells is measured using the procedure as generally set forth in Endocrinology, 91, 562 (1972) and compared against synthetic oCRF. [Ala^20 ]-oCRF is considered to be about 2 to 4 times as potent as the native hormone. […] In vivo testing which can be carried out using the general procedure set forth in C.

[6] = test system: cultured rat pituitary cells; type: cell-based
Protocol: as §1

[7] = test system: cultured rat pituitary cells; settings: background statement; cited from earlier work
[8] = test system: secretion of ACTH and β-END-LI; settings: background statement; cited from earlier work
[9] = background statement; cited from earlier work

| Compound | biopotency [1] | stimulation of ACTH and β-endorphin-like activities (β-END-LI) in vitro [7] | stimulation of ACTH and β-endorphin-like activities (β-END-LI) in vivo [8] | lowering of blood pressure [9] | also measured |
| --- | --- | --- | --- | --- | --- |
| CC[C@H](C)[C@H](NC(=O)[C@@H](NC(=O)[C@H](CCC(=O)O)NC(=O)[C@H](CCSC)NC(=O)[C@H](CC(C)C)NC(=O)[C@H](CCCCN)NC(=O)[C@H](CCCNC(=N)N)NC(=O)[C@H](CC(N)=O)NC(=O)[C@H](CO)NC(=O)[C@H](Cc1c[nH]cn1)NC(=O)[C@H](C)NC(=O)[C@H](CCC(N)=O)NC(=O)[C@H](CCC(N)=O)NC(=O)[C@H](C)NC(=O)[C@H](CC(C)C)NC(=O)[C@H](CCC(N)=O)NC(=O)[C@H](CCC(=O)O)NC(=O)[C@H](C)NC(=O)[C@H](CCCNC(=N)N)NC(=O)[C@H](C)NC(=O)[C@H](CCSC)NC(=O)[C@H](C)NC(=O)[C@H](CC(C)C)NC(=O)[C@@H](NC(=O)[C@H](CCC(=O)O)NC(=O)[C@H](CCCNC(=N)N)NC(=O)[C@H](CC(C)C)NC(=O)[C@H](CC(C)C)NC(=O)[C@H](Cc1c[nH]cn1)NC(=O)[C@@H](Cc1ccccc1)NC(=O)[C@@H](NC(=O)[C@H](CC(C)C)NC(=O)[C@H](CC(=O)O)NC(=O)[C@H](CC(C)C)NC(=O)[C@H](CO)NC(=O)[C@@H](NC(=O)[C@@H]1CCCN1C(=O)[C@@H]1CCCN1C(=O)[C@@H](N)CCC(=O)O)[C@@H](C)CC)[C@@H](C)O)C(C)C)[C@@H](C)CC)C(N)=O [IV] (H-EPPISLDLT[dF]HLLREVLAMARAEQLAQQAHSNRKLMEII-NH2) | biopotent |  |  |  | lowering of blood pressure [2]: significant lowering of blood pressure |
| CCCC[C@H](NC(=O)[C@H](C)NC(=O)[C@H](CC(C)C)NC(=O)[C@@H](NC(=O)[C@H](CCC(=O)O)NC(=O)[C@H](CCCNC(=N)N)NC(=O)[C@H](CC(C)C)NC(=O)[C@H](CC(C)C)NC(=O)[C@H](Cc1c[nH]cn1)NC(=O)[C@H](N)Cc1ccccc1)C(C)C)C(=O)N[C@@H](C)C(=O)N[C@@H](CCCNC(=N)N)C(=O)N[C@@H](C)C(=O)N[C@@H](CCC(=O)O)C(=O)N[C@@H](CCC(N)=O)C(=O)N[C@@H](CC(C)C)C(=O)N[C@@H](C)C(=O)N[C@@H](CCC(N)=O)C(=O)N[C@@H](CCC(N)=O)C(=O)N[C@@H](C)C(=O)N[C@@H](Cc1c[nH]cn1)C(=O)N[C@@H](CO)C(=O)N[C@@H](CC(N)=O)C(=O)N[C@@H](CCCNC(=N)N)C(=O)N[C@@H](CCCNC(=N)N)C(=O)N[C@@H](CC(C)C)C(=O)N[C@@H](CCCC)C(=O)N[C@@H](C)C(=O)N[C@H](C(=O)N[C@H](C(N)=O)[C@@H](C)CC)[C@@H](C)CC [IX] (H-[dF]HLLREVLA[Nle]ARAEQLAQQAHSNRRL[Nle]AII-NH2) | biopotent |  |  |  | inhibition of the secretion of ACTH and β-END-LI [3]: inhibits the secretion of ACTH and β-END-LI |
| CRF: physiologic corticotropin releasing factor, a hentetracontapeptide; species form not specified at the place (SEEPPISLDLTFHLLREVLEMARAEQLAQQAHSNRKLMEII-NH2; ends and bridges not checked; UniProt P06850 154-194, looked up) |  |  |  |  | activity (rats): increases activity; learning performance (rats): improves learning performance; respiratory rate [4]: appears to increase respiratory rate |
| SEEPPISLDLT[dF]HLLREVLA[Nle]ARAEQLAQQAHSNRRL[Nle]AII-NH2 [VIA] | biopotent |  |  |  | lowering of blood pressure [2]: significant lowering of blood pressure; stimulation of the secretion of ACTH and β-END-LI [5]: stimulates the secretion of ACTH and β-END-LI |
| SQEPPISLDLTFHLLREVLAMTKADQLAQQAHSNRKLLDIA-NH2 [Example I] |  |  |  |  | potency to stimulate the secretion of ACTH and β-endorphin, times as potent as the native hormone [6]: 2-4 times |
| SQEPPISLDLTFHLLREVLEMTKADQLAQQAHSNRKLLAIA-NH2 [II] |  |  |  |  | increase in biopotency in vitro over the native hormone [6]: ~85% |
| Ser-Gln-Glu-Pro-Pro-Ile-Ser-Leu-Asp-Leu-Thr-Phe-His-Leu-Leu-Arg-Glu-Val-Leu-Glu-Met-Thr-Lys-Ala-Asp-Gln-Leu-Ala-Gln-Gln-Ala-His-Ser-Asn-Arg-Lys-Leu-Leu-Asp-Ile-Ala (SQEPPISLDLTFHLLREVLEMTKADQLAQQAHSNRKLLDIA) [oCRF] |  | stimulate ACTH and β-endorphin-like activities | stimulates the secretion of ACTH and β-endorphin; also recorded: stimulate ACTH and β-endorphin-like activities | lowers blood pressure; also recorded: substantially lower blood pressure |  |
| Ser-Gln-Glu-Pro-Pro-Ile-Ser-Leu-Asp-Leu-Thr-phe-His-Leu-Leu-Arg-Glu-Met-Leu-Glu-Met-Ala-Lys-Ala-Glu-Gln-Glu-Ala-Glu-Gln-Ala-Ala-Leu-Asn-Arg-Leu-Leu-Leu-Glu-Glu-Ala (SQEPPISLDLTFHLLREMLEMAKAEQEAEQAALNRLLLEEA) [AHC] |  | stimulate ACTH and β-endorphin-like activities | stimulate ACTH and β-endorphin-like activities | substantially lower blood pressure |  |
| Ser-Glu-Glu-Pro-Pro-Ile-Ser-Leu-Asp-Leu-Thr-phe-His-Leu-Leu-Arg-Glu-Val-Leu-Glu-Met-Ala-Arg-Ala-Glu-Gln-Leu-Ala-Gln-Gln-Ala-His-Ser-Asn-Arg-Lys-Leu-Met-Glu-Ile-Ile (SEEPPISLDLTFHLLREVLEMARAEQLAQQAHSNRKLMEII) [rCRF] |  | stimulate ACTH and β-endorphin-like activities | stimulate ACTH and β-endorphin-like activities | substantially lower blood pressure |  |
